One assay concerns the target PARP1 GST (Homo sapiens (Human), UniProt P09874). Nature of the assay: TR-FRET binding assay, PARP1. The conditions noted are these: Probe 2, 2 hours incubation. The gist of the method: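 Serially diluted compounds, final 30 μM down to 0.5 nM, incubated 2 h at ambient temperature with GST-tagged protein/probe mix plus 1 nM Tb-anti-GST antibody. Buffer: 50 mM Tris-HCl pH 8.0, 5 mM MgCl2, 5 μM ZnCl2, 1 mM DTT, 0.15% BSA, 0.01% Triton X-100. Binding read as TR-FRET ratio.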

A further assay deals with NCI-H1373 cells. Nature of the assay: NCI-H1373 CellTiter-Glo cell assay for TIPARP inhibition. Type of assay: cell-based, human. The conditions noted are these: Homo sapiens, NCI-H1373, 144 h; 6 days, 100 nM 10-Cl-BBQ in medium; read-out: NCI-H1373 CTG EC50. Put shortly:
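NCI-H1373 cells (1000/well) grown in RPMI 1640 with 10% FBS and 100 nM 10-Cl-BBQ, exposed to compounds from 30 μM to 0.5 nM final in 3-fold steps for 6 days at 37° C. Cell number read on day 7 by CellTiter-Glo luminescence.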
In general terms: In ATP-based viability assays light output follows the ATP content of the culture.

Another assay relates to IFNβ. Kind of assay: Tumor selective induction of IFNβ in MC-38 (Ker) syngeneic model. The assay is classed as in vivo, mouse. The conditions noted are these: 3 hours after last dose, PO once daily for 2 days. The procedure:
The murine cell line MC-38 derived from C57BL/6 murine colon adenocarcinoma cells was obtained from Kerafast (Boston, MA, USA). A suspension of 2.5×10^5 cells in culture medium mixed with Matrigel® (Corning Life Sciences, Lowell, MA, USA; 1:1, volume:volume) was injected subcutaneously in the right hind flank of female C57BL/6 mice to generate tumor formation. Treatment started when the size of the flank tumors was approximately 500 mm^3. Vehicle and three different doses of Example 1 were administered once daily to each of four to five mice at each dose level for 2 days. Each administration consisted of a single 0.2 mL PO dose in a vehicle formulation (10% ethanol, 30% PEG300, and 60% PHOSAL® 50 PG).
Blood and tumors were collected 3 hours after the last dose. Blood was transferred to microfuge tubes containing E DTA, centrifuged at 2000×g for 8 minutes at 4° C., and the upper plasma layer was transferred to new tubes and frozen at −80° C. Tumors were weighed and 200 to 500 mg of tumor tissue was transferred to microfuge tubes, which were then centrifuged at 15000×g for 10 minutes at 4° C. The supernatant was transferred to a fresh 96 well plate. […] The concentration of IFNβ in the thawed plasma and tumor fluid was determined using a Milliplex MAP mouse IFNβ assay (EMD Millipore, Burlington, MA, USA).

One may read the IC50 as the concentration that gives 50% inhibition. A low value points to greater potency. The EC50 is the concentration giving half of the maximal effect.

PARP1 GST, sequence (P09874 whole entry): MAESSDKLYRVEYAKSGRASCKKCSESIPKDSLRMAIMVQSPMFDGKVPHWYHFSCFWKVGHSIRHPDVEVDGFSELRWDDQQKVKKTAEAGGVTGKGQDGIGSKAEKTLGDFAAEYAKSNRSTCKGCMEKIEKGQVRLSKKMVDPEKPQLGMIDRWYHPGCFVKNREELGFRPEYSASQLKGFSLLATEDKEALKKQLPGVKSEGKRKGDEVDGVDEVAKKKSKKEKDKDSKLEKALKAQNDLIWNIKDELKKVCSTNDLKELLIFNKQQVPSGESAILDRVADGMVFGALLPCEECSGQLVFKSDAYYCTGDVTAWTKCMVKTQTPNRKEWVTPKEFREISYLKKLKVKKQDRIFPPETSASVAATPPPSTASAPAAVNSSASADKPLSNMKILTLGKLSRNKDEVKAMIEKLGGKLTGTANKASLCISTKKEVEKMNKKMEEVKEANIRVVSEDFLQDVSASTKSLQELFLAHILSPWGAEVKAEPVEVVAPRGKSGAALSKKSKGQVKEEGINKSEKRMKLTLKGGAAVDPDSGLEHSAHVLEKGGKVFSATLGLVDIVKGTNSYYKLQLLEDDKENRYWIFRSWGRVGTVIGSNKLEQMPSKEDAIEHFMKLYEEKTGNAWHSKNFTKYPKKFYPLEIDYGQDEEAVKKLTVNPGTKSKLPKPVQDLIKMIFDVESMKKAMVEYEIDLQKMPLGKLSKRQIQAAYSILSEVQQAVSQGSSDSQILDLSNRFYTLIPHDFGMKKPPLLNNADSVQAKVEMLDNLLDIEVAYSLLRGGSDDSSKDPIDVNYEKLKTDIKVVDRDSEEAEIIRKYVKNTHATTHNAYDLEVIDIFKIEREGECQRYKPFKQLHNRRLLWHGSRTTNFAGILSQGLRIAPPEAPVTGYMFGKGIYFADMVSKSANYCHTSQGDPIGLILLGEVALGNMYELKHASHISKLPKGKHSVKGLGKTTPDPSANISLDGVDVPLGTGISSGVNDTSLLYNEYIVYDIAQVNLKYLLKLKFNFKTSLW

On to `C[C@@H]1CN(c2ncc(C(F)(F)F)cn2)CCN1C(=O)[C@H]1C[C@@H](c2c[nH]c(=O)c(C(F)(F)F)c2)C1` [Example 1, 5-[(1S,3s)-3-{(2R)-2-methyl-4-[5-(trifluoromethyl)pyrimidin-2-yl]piperazine-1-carbonyl}cyclobutyl]-3-(trifluoromethyl)pyridin-2(1H)-one], for which, at PARP1 GST, the half-maximal inhibitory concentration (IC50) was found to be 2.74 µM. In the assay with NCI-H1373 cells, the EC50 was determined as 0.0172 µM. Further, the “induction of IFNβ in plasma” value with IFNβ (plasma) is given as “not in plasma”. For the same compound, the “induction of IFNβ in tumors” value in the assay on IFNβ (tumor fluid) is “induced IFNβ in MC-38 (Ker) tumors compared to vehicle”.
